In paper PMC5411871 (African Journal of Traditional, Complementary, and …, 2016):

Target: T1, Lipoxygenase (type I-B) (Glycine max, UniProt P08170)
T1 sequence (P08170 1-839): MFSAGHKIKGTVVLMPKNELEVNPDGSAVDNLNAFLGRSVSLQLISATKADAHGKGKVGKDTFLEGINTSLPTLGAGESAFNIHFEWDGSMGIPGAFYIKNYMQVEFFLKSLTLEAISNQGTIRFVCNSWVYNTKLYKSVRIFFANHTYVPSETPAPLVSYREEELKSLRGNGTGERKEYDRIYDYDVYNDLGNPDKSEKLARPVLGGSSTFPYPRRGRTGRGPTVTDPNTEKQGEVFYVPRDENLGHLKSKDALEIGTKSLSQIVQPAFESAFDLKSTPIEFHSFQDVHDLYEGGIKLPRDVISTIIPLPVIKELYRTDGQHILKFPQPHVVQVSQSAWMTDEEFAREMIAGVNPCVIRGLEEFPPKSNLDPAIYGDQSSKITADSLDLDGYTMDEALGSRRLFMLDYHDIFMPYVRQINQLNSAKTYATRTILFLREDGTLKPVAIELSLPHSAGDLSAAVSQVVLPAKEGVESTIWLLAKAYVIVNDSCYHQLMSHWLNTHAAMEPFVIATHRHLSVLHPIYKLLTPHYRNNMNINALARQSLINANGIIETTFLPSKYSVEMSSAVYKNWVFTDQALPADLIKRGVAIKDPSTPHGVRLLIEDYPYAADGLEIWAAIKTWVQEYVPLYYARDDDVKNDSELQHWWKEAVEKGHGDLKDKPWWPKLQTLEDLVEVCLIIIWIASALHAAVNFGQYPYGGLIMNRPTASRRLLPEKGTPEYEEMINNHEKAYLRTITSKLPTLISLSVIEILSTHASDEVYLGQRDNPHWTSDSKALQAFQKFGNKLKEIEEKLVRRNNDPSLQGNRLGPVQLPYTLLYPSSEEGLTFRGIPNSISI
Test: absorbance at […] nm, linoleic acid oxidation
Assay type: biochemical

Row | IC50 [µM] | SMILES
1 | 57.3 | C[C@H]1C(=O)CC[C@@H]2[C@]1(C)CC[C@H]1[C@@]2(C)CC[C@@]2(C)[C@@H]3CC(C)(C)CC[C@]3(C)CC[C@]12C [compound 1, friedelin]
2 | 54 | CC1(C)C[C@@H](O)[C@]2(C)CC[C@]3(C)C(=CC[C@@H]4[C@@]5(C)CC[C@H](O)C(C)(C)[C@@H]5CC[C@]43C)[C@@H]2C1 [compound 3, sopharadiol]
